Reference: PMC6586119, “Synthesis and biological evaluation of novel 8-substituted quinoline-2-carboxamides as carbonic anhydrase inhibitors” (Journal of Enzyme Inhibition and Medicinal Chemistry, 2019)
Where two headings read alike, the source gives them in different places.

What was measured:
Assay in all cases: stopped-flow CO2 hydration assay
Type in all cases: biochemical
[1] = target: T1, hCA II (Homo sapiens, UniProt P00918)
T1 construct: gene CA2; recombinant, cytosolic isoform
Description: stopped-flow CO2 hydration assay on hCA II

[2] = target: T2, hCA I (Homo sapiens, UniProt P00915)
T2 construct: gene CA1; recombinant, cytosolic isoform
Description: stopped-flow CO2 hydration assay on hCA I

[3] = target: T3, hCA IV (Homo sapiens, UniProt P22748)
T3 construct: gene CA4
Description: stopped-flow CO2 hydration assay on hCA IV

[4] = CO2 hydration, […] Hepes pH […] °C, […] Na2SO4 or NaClO4, […] min preincubation

T3 sequence (P22748 19-284): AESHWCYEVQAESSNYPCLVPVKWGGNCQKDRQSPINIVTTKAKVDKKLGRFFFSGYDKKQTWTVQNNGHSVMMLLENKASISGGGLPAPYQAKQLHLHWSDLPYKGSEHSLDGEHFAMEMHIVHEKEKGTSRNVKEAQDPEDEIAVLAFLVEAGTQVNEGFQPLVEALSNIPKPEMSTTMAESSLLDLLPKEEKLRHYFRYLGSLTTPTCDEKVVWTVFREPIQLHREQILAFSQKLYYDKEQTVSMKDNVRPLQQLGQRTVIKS
T2 sequence (P00915 2-261): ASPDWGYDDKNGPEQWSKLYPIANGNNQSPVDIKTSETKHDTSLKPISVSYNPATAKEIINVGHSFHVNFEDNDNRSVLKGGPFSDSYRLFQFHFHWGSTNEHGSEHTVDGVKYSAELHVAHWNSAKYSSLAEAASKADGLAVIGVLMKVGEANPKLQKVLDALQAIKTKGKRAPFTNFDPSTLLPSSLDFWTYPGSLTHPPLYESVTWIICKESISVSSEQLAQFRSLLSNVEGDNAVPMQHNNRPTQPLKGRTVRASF

SMILES	Ki [1] [nM]	Ki [2] [nM]	Ki [3] [nM]	Ki [1, 4] [nM]	Ki [2, 4] [nM]
NS(=O)(=O)c1ccc(NC(=O)c2ccc3cccc(OCc4ccc([N+](=O)[O-])cc4)c3n2)cc1 [5a, 8-((4-Nitrobenzyl)oxy)-N-(4-sulfamoylphenyl)quinoline-2-carboxamide]	88.4	641	691	–	–
NS(=O)(=O)c1ccc(NC(=O)c2ccc3cccc(OCc4ccccc4Br)c3n2)cc1 [5b, 8-((2-Bromobenzyl)oxy)-N-(4-sulfamoylphenyl)quinoline-2-carboxamide]	85.7	444	3930	–	–
NS(=O)(=O)c1ccc(NC(=O)c2ccc3cccc(OCc4ccccc4)c3n2)cc1 [5c, 8-(Benzyloxy)-N-(4-sulfamoylphenyl)quinoline-2-carboxamide]	8340	5290	6410	–	–
Cc1cc(C)cc(COc2cccc3ccc(C(=O)Nc4ccc(S(N)(=O)=O)cc4)nc23)c1 [5d, 8-((3,5-Dimethylbenzyl)oxy)-N-(4-sulfamoylphenyl)quinoline-2-carboxamide]	8760	8130	6760	–	–
NS(=O)(=O)c1ccc(NC(=O)c2ccc3cccc(OCc4cccc(Cl)c4)c3n2)cc1 [5e, 8-((3-Chlorobenzyl)oxy)-N-(4-sulfamoylphenyl)quinoline-2-carboxamide]	5170	6470	807	–	–
NS(=O)(=O)c1ccc(NC(=O)c2ccc3cccc(OCc4cc(F)ccc4F)c3n2)cc1 [5f, 8-((2,5-Difluorobenzyl)oxy)-N-(4-sulfamoylphenyl)quinoline-2-carboxamide]	957	6560	787	–	–
C#CCOc1cccc2ccc(C(=O)Nc3ccc(S(N)(=O)=O)cc3)nc12 [5g, 8-(Prop-2-yn-1-yloxy)-N-(4-sulfamoylphenyl)quinoline-2-carboxamide]	5110	6910	657	–	–
COc1cccc2ccc(C(=O)Nc3ccc(S(N)(=O)=O)cc3)nc12 [5h, 8-Methoxy-N-(4-sulfamoylphenyl)quinoline-2-carboxamide]	–	–	1750	33	61.9
